Assay results taken from ChEMBL document CHEMBL4308851, “Alkyl-guanidine Compounds as Potent Broad-Spectrum Antibacterial Agents: Chemical Library Extension and Biological Characterization” (J Med Chem, 2018).
pKd: −log10 of the molar value. In brackets after ≈: the same amount, converted by molar mass. Activity calls are given as the source filed them. The calls are words filed in the database; no cut-off is given here.

Tests used:
Escherichia coli [1] = test: Antibacterial activity against Escherichia coli CCUG deficient in potA gene; format: functional, organism-based
Escherichia coli [2] = test: Antibacterial activity against Escherichia coli CCUG deficient in potB gene; format: functional, organism-based
Bacillus spizizenii = test: Antibacterial activity against Bacillus subtilis ATCC 6633 after 18 hrs by microdilution broth method; format: functional; details: ATCC 6633, 18 h
Enterococcus faecalis = test: Antibacterial activity against Enterococcus faecalis ATCC 19433 after 18 hrs by microdilution broth method; format: functional; details: ATCC 19433, 18 h
Staphylococcus aureus = test: Antibacterial activity against Staphylococcus aureus ATCC 25923 after 18 hrs by microdilution broth method; format: functional; details: ATCC 25923, 18 h
Streptococcus pyogenes = test: Antibacterial activity against Streptococcus pyogenes ATCC 12344 after 18 hrs by microdilution broth method; format: functional; details: ATCC 12344, 18 h
Acinetobacter baumannii [3] = test: Antibacterial activity against Acinetobacter baumannii ATCC 17978 after 18 hrs by microdilution broth method; format: functional; details: ATCC 17978, 18 h
Klebsiella pneumoniae [4] = test: Antibacterial activity against Klebsiella pneumoniae ATCC […] after 18 hrs by microdilution broth method; format: functional
Pseudomonas aeruginosa [5] = test: Antibacterial activity against Pseudomonas aeruginosa ATCC 27853 after 18 hrs by microdilution broth method; format: functional; details: ATCC 27853, 18 h
Acinetobacter baumannii [6] = test: Antibacterial activity against Acinetobacter baumannii isolate AC-54/97 after 18 hrs by microdilution broth method; format: functional; details: isolate AC-54/97, 18 h
Burkholderia cepacia = test: Antibacterial activity against Burkholderia cepacia isolate SI-R2 after 18 hrs by microdilution broth method; format: functional; details: isolate SI-R2, 18 h
Enterobacter cloacae = test: Antibacterial activity against Enterobacter cloacae isolate VA-417/02 after 18 hrs by microdilution broth method; format: functional; details: isolate VA-417/02, 18 h
Klebsiella pneumoniae [7] = test: Antibacterial activity against Klebsiella pneumoniae isolate SI-081 after 18 hrs by microdilution broth method; format: functional; details: isolate SI-081, 18 h
[8] = tested on: Stenotrophomonas maltophilia; test: Antibacterial activity against Stenotrophomonas maltophilia isolate 634/08 after 18 hrs by microdilution broth method; format: functional; details: isolate 634/08, 18 h
Escherichia coli [9] = test: Bactericidal activity against Escherichia coli CCUG assessed as log reduction in CFU at 2 times MIC concentration after 1 hr by time kill assay; format: functional
Escherichia coli [10] = test: Antibacterial activity against Escherichia coli MG1655 cultured in MHB supplemented with 10% human serum assessed as reduction in bacterial growth at 1 ug/ml after 24 hrs; format: functional, organism-based; details: K-12 substr. MG1655
Escherichia coli [11] = test: Ratio of MIC for Escherichia coli MG1655 cultured in MHB supplemented with 10% human serum after 24 hrs to MIC for Escherichia coli MG1655 cultured in absence of 10% human serum; format: functional, K-12 substr. MG1655
Escherichia coli [12] = test: Antibacterial activity against Escherichia coli MG1655 cultured in MHB supplemented with 5 to 40 mg/ml at 1 to 2 ug/ml after 24 hrs; format: functional, organism-based; details: K-12 substr. MG1655
Escherichia coli [13] = test: Disruption of inner membrane integrity in Escherichia coli MG1655 assessed as induction of […] conversion at 256 ug/ml measured at 10 mins intervals for 1 hr; format: functional, organism-based; details: K-12 substr. MG1655
Pseudomonas aeruginosa [14] = test: Disruption of inner membrane integrity in Pseudomonas aeruginosa PAO1 ATCC 15692 co-expressing pMP2200::PrrnB plasmid assessed as induction of OPNG conversion at 256 ug/ml measured at 10 mins intervals for 1 hr; format: functional, organism-based
Acinetobacter baumannii [15] = test: Disruption of inner membrane integrity in Acinetobacter baumannii ATCC 19606 co-expressing pMP2200::PrrnB plasmid assessed as induction of […] conversion at 256 ug/ml measured at 10 mins intervals for 1 hr; format: functional, organism-based; details: ATCC 19606 = CIP 70.34 = JCM 6841
Escherichia coli [16] = test: Disruption of Escherichia coli MG1655 ATCC 47076 outer membrane integrity assessed as induction of NPN uptake after 30 mins by NPN fluorescence-based assay; format: functional, organism-based; details: K-12 substr. MG1655 ATCC 47076
Pseudomonas aeruginosa [17] = test: Disruption of Pseudomonas aeruginosa PAO1 ATCC 15692 outer membrane integrity assessed as induction of NPN uptake after 30 mins by NPN fluorescence-based assay; format: functional, organism-based
Acinetobacter baumannii [18] = test: Disruption of Acinetobacter baumannii ATCC 19606 outer membrane integrity assessed as induction of NPN uptake after 30 mins by NPN fluorescence-based assay; format: functional, organism-based; details: ATCC 19606 = CIP 70.34 = JCM 6841
Escherichia coli [19] = test: Antibiofilm activity against Escherichia coli MG1655 ATCC 47076 at half MIC concentration after 24 hrs by crystal violet-based assay; format: functional, organism-based; details: K-12 substr. MG1655 ATCC 47076
Pseudomonas aeruginosa [20] = test: Antibiofilm activity against Pseudomonas aeruginosa PAO1 ATCC 15692 at half MIC concentration after 24 hrs by crystal violet-based assay; format: functional, organism-based
Acinetobacter baumannii [21] = test: Antibiofilm activity against Acinetobacter baumannii ATCC 19606 at half MIC concentration after 24 hrs by crystal violet-based assay; format: functional, organism-based; details: ATCC 19606 = CIP 70.34 = JCM 6841
Escherichia coli [22] = test: Antibiofilm activity against Escherichia coli MG1655 ATCC 47076 assessed as effect on biofilm 3D structures at half MIC concentration after 24 hrs by AO-staining based confocal microscopy; format: functional, organism-based; details: K-12 substr. MG1655 ATCC 47076
Pseudomonas aeruginosa [23] = test: Antibiofilm activity against Pseudomonas aeruginosa PAO1 ATCC 15692 assessed as effect on biofilm 3D structures at half MIC concentration after 24 hrs by AO-staining based confocal microscopy; format: functional, organism-based
Acinetobacter baumannii [24] = test: Antibiofilm activity against Acinetobacter baumannii ATCC 19606 assessed as effect on biofilm 3D structures at half MIC concentration after 24 hrs by AO-staining based confocal microscopy; format: functional, organism-based; details: ATCC 19606 = CIP 70.34 = JCM 6841
[25] = Hemolytic activity against human erythrocytes assessed as induction of hemolysis at 64 ug/ml after 30 mins; format: cell-based, Erythrocyte; details: read-out: Activity
HeLa [26] = test: Cytotoxicity against human HeLa cells assessed as reduction in cell viability at 16 ug/ml after 24 hrs by celltox green-based assay
HeLa [27] = test: Cytotoxicity against human HeLa cells assessed as reduction in cell viability at 256 ug/ml after 24 hrs by celltox green-based assay relative to control
[28] = Metabolic stability in human liver microsomes at 50 uM after 60 mins in presence of NADPH by LC-UV-MS analysis; format: ADME, Microsome; details: read-out: Stability
[29] = 1-Octanol/Tris buffer distribution coefficient, log D of the compound at pH 7.4 by HPLC analysis; format: physicochemical
Albumin [30] = biological target: T1, Albumin (Homo sapiens, UniProt P02768); test: Binding affinity to human serum albumin assessed as dissociation constant after 30 mins by fluorescence-based assay; format: ADME
T1 sequence (P02768 whole entry): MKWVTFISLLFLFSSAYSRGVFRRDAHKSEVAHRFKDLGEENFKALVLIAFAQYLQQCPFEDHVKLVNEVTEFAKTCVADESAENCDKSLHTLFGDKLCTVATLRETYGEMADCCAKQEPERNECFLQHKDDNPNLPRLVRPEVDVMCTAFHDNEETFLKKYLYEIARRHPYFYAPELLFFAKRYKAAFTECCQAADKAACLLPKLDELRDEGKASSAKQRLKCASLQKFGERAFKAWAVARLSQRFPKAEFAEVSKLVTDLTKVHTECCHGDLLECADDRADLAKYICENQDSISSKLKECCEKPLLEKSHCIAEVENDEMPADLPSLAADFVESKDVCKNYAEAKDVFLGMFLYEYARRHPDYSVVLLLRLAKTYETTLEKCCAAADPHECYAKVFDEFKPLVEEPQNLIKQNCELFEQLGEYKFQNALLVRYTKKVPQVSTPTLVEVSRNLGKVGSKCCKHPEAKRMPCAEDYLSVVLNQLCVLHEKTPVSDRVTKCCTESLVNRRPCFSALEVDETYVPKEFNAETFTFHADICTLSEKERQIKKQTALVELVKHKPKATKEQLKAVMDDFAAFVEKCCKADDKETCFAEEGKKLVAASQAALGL

Albumin [31] = biological target: T1, Albumin; test: Binding affinity to human serum albumin assessed as Bmax after 30 mins by fluorescence-based assay; format: ADME; details: isolated protein, 0.5 h
[32] = Binding affinity to AGP (unknown origin) assessed as dissociation constant after 30 mins by fluorescence-based assay; format: ADME, Homo sapiens
[33] = Binding affinity to AGP (unknown origin) assessed as Bmax after 30 mins by fluorescence-based assay; format: ADME; details: human, isolated protein, 0.5 h
[34] = Apparent permeability of the compound after 5 hrs by PAMPA; format: ADME
Escherichia coli [35] = test: Antibacterial activity against Escherichia coli CCUG deficient in potD gene; format: functional, organism-based
Escherichia coli [36] = test: Antibacterial activity against Escherichia coli CCUG deficient in potE gene; format: functional, organism-based
Escherichia coli [37] = test: Antibacterial activity against Escherichia coli CCUG deficient in potF gene; format: functional, organism-based
Escherichia coli [38] = test: Antibacterial activity against Escherichia coli CCUG deficient in potG gene; format: functional, organism-based
Escherichia coli [39] = test: Antibacterial activity against Escherichia coli CCUG deficient in potH gene; format: functional, organism-based
Escherichia coli [40] = test: Antibacterial activity against Escherichia coli CCUG deficient in potI gene; format: functional, organism-based
Escherichia coli [41] = test: Antibacterial activity against Escherichia coli CCUG assessed as inhibition of microbial growth at >32 ug/ml measured up to 48 hrs; format: functional, organism-based
in vitro [42] = details: human, Caco-2
Description: Apparent permeability across apical to basolateral side in human Caco2 cells at 10 uM after 120 mins by LC-MS/MS analysis

in vitro [43] = details: human, Caco-2; remark: listed apart in the source
Description: Efflux ratio of apparent permeability in human Caco2 cells at 10 uM after 120 mins by LC-MS/MS analysis

Escherichia coli [44] = test: Antibacterial activity against Escherichia coli CCUG after 18 hrs by microdilution broth method
Escherichia coli [45] = test: Induction of cytoplasmic membrane depolarization in Escherichia coli at 16 ug/ml by DiSC3-5-fluorescence based assay

## N=C(N)NCCCCCCCCN(CCCCCCCCNC(=N)NCC1CC1)C(=O)N(CCCCCCCCNC(=N)N)CCCCCCCCNC(=N)NCC1CC1
Escherichia coli [1]
  Activity: Active
Escherichia coli [2]
  Activity: Active
Bacillus spizizenii
  MIC: 0.5 µg/mL (≈ 0.591 µM)
Enterococcus faecalis
  MIC: 2 µg/mL (≈ 2.37 µM)
Staphylococcus aureus
  MIC: 2 µg/mL (≈ 2.37 µM)
Streptococcus pyogenes
  MIC: 1 µg/mL (≈ 1.18 µM)
Acinetobacter baumannii [3]
  MIC: 8 µg/mL (≈ 9.46 µM)
Klebsiella pneumoniae [4]
  MIC: 2 µg/mL (≈ 2.37 µM)
Pseudomonas aeruginosa [5]
  MIC: 8 µg/mL (≈ 9.46 µM)
Acinetobacter baumannii [6]
  MIC: 2 µg/mL (≈ 2.37 µM)
Burkholderia cepacia
  MIC: 16 µg/mL (≈ 18.9 µM)
Enterobacter cloacae
  MIC: 1 µg/mL (≈ 1.18 µM)
Klebsiella pneumoniae [7]
  MIC: 2 µg/mL (≈ 2.37 µM)
[8]
  MIC: 16 µg/mL (≈ 18.9 µM)
Escherichia coli [9]
  Activity: >=4 log10CFU/ml
Escherichia coli [10]
  growth inhibition (GI): inactive
Escherichia coli [11]
  Ratio: 2
Escherichia coli [12]
  Activity: Active
Escherichia coli [13]
  Activity: inactive
Pseudomonas aeruginosa [14]
  Activity: inactive
Acinetobacter baumannii [15]
  Activity: inactive
Escherichia coli [16]
  Activity: Dose-dependent effect
Pseudomonas aeruginosa [17]
  Activity: Dose-dependent effect
Acinetobacter baumannii [18]
  Activity: Dose-dependent effect
Escherichia coli [19]
  Activity: inactive
Pseudomonas aeruginosa [20]
  Activity: inactive
Acinetobacter baumannii [21]
  Activity: inactive
Escherichia coli [22]
  Activity: inactive
Pseudomonas aeruginosa [23]
  Activity: inactive
Acinetobacter baumannii [24]
  Activity: inactive
[25]
  hemolysis at 0.5 h, 64 ug/ml: 0 to 7%
HeLa [26]
  Activity: Non-Toxic
HeLa [27]
  Activity: <= 60%
[28]
  remaining at 1 h, 50 µM: > 99%
[29]
  logD: -0.79
Albumin [30]
  pKd: 4.63
Albumin [31]
  Bmax: 14%
[32]
  pKd: 6.96
[33]
  Bmax: 30.2%
[34]
  Papp at 5 h: 1.6 ×10⁻⁶ cm/s
Escherichia coli [35]
  Activity: Active
Escherichia coli [36]
  Activity: Active
Escherichia coli [37]
  Activity: Active
Escherichia coli [38]
  Activity: Active
Escherichia coli [39]
  Activity: Active
Escherichia coli [40]
  Activity: Active
Escherichia coli [41]
  Activity: Active
In vitro [42]
  Papp A→B at 2 h, 10 µM: 0.19 ×10⁻⁶ cm/s
In vitro [43]
  efflux ratio at 2 h, 10 µM: 0.65
Escherichia coli [44]
  MIC: 2 µg/mL (≈ 2.37 µM)
Escherichia coli [45]
  Activity: inactive
